According to article PMC6357218 (Molecular Therapy Oncolytics, 2018):

Molecular target: wild-type (WT) FKBP12 (in iRC9) (Homo sapiens, UniProt P62942)
Experiment: Cross-activation of iRC9 apoptosis by high rimiducid in transfected HEK293 cells
Type: cell-based

Chain of wild-type (WT) FKBP12 (in iRC9) (P62942 2-108): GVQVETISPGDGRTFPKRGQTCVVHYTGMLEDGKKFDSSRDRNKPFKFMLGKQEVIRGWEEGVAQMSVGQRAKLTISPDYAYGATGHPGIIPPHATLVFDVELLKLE

CC[C@H](C(=O)N1CCCC[C@H]1C(=O)O[C@H](CCc1ccc(OC)c(OC)c1)c1cccc(OCC(=O)NCCNC(=O)COc2cccc([C@@H](CCc3ccc(OC)c(OC)c3)OC(=O)[C@@H]3CCCCN3C(=O)[C@@H](CC)c3cc(OC)c(OC)c(OC)c3)c2)c1)c1cc(OC)c(OC)c(OC)c1 [Rim, rimiducid]
Cross-activation of iRC9 apoptosis by high rimiducid in transfected HEK293 cells: > 100 nM
